The record followed here is US20080070954A1, “Acylurea Connected And Sulfonylurea Connected Hydroxamates” (S*BIO PTE LTD., priority 2003, published 2008).

The subject of test [1] is Ramos Burkitt-lymphoma cells. The test is described as follows: Apoptosis assay (Annexin V / PI staining, FACS). The class given is cell-based. The conditions noted are these: 48 hr after treatment with 10 μM. From the text:
In various therapies such as for proliferative disorders like cancer, the selective induction of apoptosis in proliferating cells such as tumor cells is one of the desirable approaches, and can be mediated by treatment with various anti-proliferative compounds [Blagosklonny M V, Oncogene, 23(16): 2967 (2004); Kaufmann and Earnshaw, Exp Cell Res. 256(1): 42-9 (2000)]. Programmed cell death or apoptosis is the cellular response to stress factors such as DNA damage introduced during conventional anti-cancer treatment. The concerted sequence of events during apoptosis, clearly differentiate this pathway from a non-coordinated form of cell death called necrosis. During the course of apoptosis, characteristic phenotypical cellular changes occur, which include the condensation of chromatin, the shrinkage of cells and finally the fragmentation of chromosomal DNA. One of the very early changes caused by apoptotic events occurs in the phospholipids bilayer of the plasma membrane. The phospholipid phosphatidylserine is translocated from the inner to the outer side of the plasma-membrane and, as a result, is exposed to the extracellular space. One way of detecting early apoptotic cells is to determine the amount of phosphatidyl-serine at the extracellular side of the plasma-membrane which is accomplished by the standard flow cytometric method of Annexin V staining. […]

Test [2] has as its target T1, HDAC8 enzyme (recombinant GST-HDAC8) (Homo sapiens, UniProt Q9BY41).
T1 construct: Amplification of human HDAC1 and HDAC8 coding region from this cDNA library; made in house; host or cells: SF9 insect cells (baculovirus, pFASTBAC vector)
T1 sequence (Q9BY41 1-377): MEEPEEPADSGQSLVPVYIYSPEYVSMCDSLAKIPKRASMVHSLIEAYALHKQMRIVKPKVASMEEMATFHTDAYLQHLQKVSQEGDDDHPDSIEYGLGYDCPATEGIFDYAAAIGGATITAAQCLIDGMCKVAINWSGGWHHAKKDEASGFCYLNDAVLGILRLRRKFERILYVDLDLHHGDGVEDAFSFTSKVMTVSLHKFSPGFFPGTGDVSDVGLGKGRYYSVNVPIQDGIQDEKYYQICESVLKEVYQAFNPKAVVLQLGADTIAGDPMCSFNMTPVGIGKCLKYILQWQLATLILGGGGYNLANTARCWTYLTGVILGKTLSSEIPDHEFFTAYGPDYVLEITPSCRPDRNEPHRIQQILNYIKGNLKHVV
The test is described as follows: In vitro HDAC assay for determination of IC50 values (BIOMOL fluorescent-based), HDAC8. The conditions noted are these: 500 nM HDAC8 enzyme, 200 μM Flur de lys p53 peptide substrate, 2 h room temperature. The class given is biochemical. How it is done:
Human cDNA library was prepared using cultured SW620 cells. Amplification of human HDAC1 and HDAC8 coding region from this cDNA library was cloned separately into the baculovirus expression pDEST20 vector and pFASTBAC vector respectively (GATEWAY Cloning Technology, Invitrogen Pte Ltd). […] Recombinant baculovirus was prepared using the Bac-To-Bac method following the manufacturer's instruction (Invitrogen Pte Ltd).
(§1) Expression of GST-HDAC1 or HTGST-HDAC8 was done by infecting SF9 cells (Invitrogen Pte Ltd) with pDEST20-HDAC1 or pFASTBAC-GST-HDAC8 baculovirus at MOI=1 for 48 h. Soluble cell lysate was incubated with pre-equilibrated Glutathione Sepharose 4B beads (Amersham) at 4° C. for 2 h. The beads were washed with PBS buffer for 3 times. The GST-HDAC1 protein or GST-HDAC8 protein was eluted by elution buffer containing 50 mM Tris, pH8.0, 150 mM NaCl, 1% Triton X-100 and 10 mM or 20 mM reduced Glutathione. The purified GST-HDAC1 protein or purified GST-HDAC8 protein was dialyzed with HDAC storage buffer containing 10 mM Tris, pH7.5, 100 mM NaCl and 3 mM MgCl2. 20% Glycerol was added to purified GST-HDAC1 protein or purified GST-HDAC8 before storage at −80° C.
The assay has been carried out in 96 well format and the BIOMOL fluorescent-based HDAC activity assay has been applied. […] Flur de lys Developer was added and the reaction was incubated for 10 min. Briefly, deacetylation of the substrate sensitizes it to the developer, which then generates a fluorophore. The fluorophore is excited with 360 nm light and the emitted light (460 nm) is detected on a fluorometric plate reader (Tecan Ultra Microplate detection system, Tecan Group Ltd.).
(§2) The analytical software, Prism 3.0® (GraphPad Software Inc) has been used to generate IC50 from a series of data.

Test [3] addresses T2, HDAC1 enzyme (recombinant GST-HDAC1) (Homo sapiens, UniProt Q13547).
T2 construct: Amplification of human HDAC1 and HDAC8 coding region from this cDNA library; made in house; host or cells: SF9 insect cells (baculovirus, pDEST20 vector)
In words: In vitro HDAC assay for determination of IC50 values (BIOMOL fluorescent-based), HDAC1. The conditions noted are these: 600 nM HDAC1 enzyme, 500 μM Flur de lys generic substrate, 2 h room temperature. The class given is biochemical. The procedure:
Human cDNA library was prepared using cultured SW620 cells. Amplification of human HDAC1 and HDAC8 coding region from this cDNA library was cloned separately into the baculovirus expression pDEST20 vector and pFASTBAC vector respectively (GATEWAY Cloning Technology, Invitrogen Pte Ltd). The pDEST20-HDAC1 and pFASTBAC-HTGST-HDAC8 constructs were confirmed by DNA sequencing. Recombinant baculovirus was prepared using the Bac-To-Bac method following the manufacturer's instruction (Invitrogen Pte Ltd). Baculovirus titer was determined by plaque assay to be about 10^8 PFU/ml.
as §1
The assay has been carried out in 96 well format and the BIOMOL fluorescent-based HDAC activity assay has been applied. The reaction composed of assay buffer, containing 25 mM Tris pH 7.5, 137 mM NaCl, 2.7 mM KCl, 1 mM MgCl2, 1 mg/ml BSA, tested compounds, 500 nM HDAC8 enzyme or 600 nM HDAC1 enzyme, 200 μM Flur de lys p53 peptide substrate for HDAC8 enzyme or 500 μM Flur de lys generic substrate for HDAC1 enzyme and subsequently was incubated at room temperature for 2 h. Flur de lys Developer was added and the reaction was incubated for 10 min. Briefly, deacetylation of the substrate sensitizes it to the developer, which then generates a fluorophore. The fluorophore is excited with 360 nm light and the emitted light (460 nm) is detected on a fluorometric plate reader (Tecan Ultra Microplate detection system, Tecan Group Ltd.).
as §2

Test [4] has as its system acetylated histone H2A in Colo205 cells. The test is described as follows: Histone acetylation assay (western blot), histone H2A. Format: cell-based, human. Also noted: key: “Active” means accumulation of acetylated histone was observed when compared with control (without compound). The conditions noted are these: Colo205 cells, 0.1, 1, 5 and 10 μM, 24 h. How it is done:
(§3) A hallmark of histone deacetylase (HDAC) inhibition is the increase in the acetylation level of histones. Histone acetylation, including H3, H4, H2A and H2B can be detected by immuno-blotting (western-blot). Colo205 cells, approximately 1.5×10^6 cells/10 cm dish, were seeded in the previously described medium, cultivated for 24 h and subsequently treated with HDAC inhibitory agents at 0.1, 1, 5 and 10 μM final concentration. After 24 h, cells were harvested and lysed according to the instruction from Sigma Mammalian Cell Lysis Kit. The protein concentration was quantified using BCA method (Sigma Pte Ltd). The protein lysate was separated using 4-12% bis-tris SDS-PAGE gel (Invitrogen Pte Ltd) and was transferred onto PVDF membrane (BioRad Pte Ltd). The membrane was probed separately using primary antibody specific for acetylated H3, acetylated H4 or acetylated H2A (Upstate Pte Ltd). The detection antibody, goat anti rabbit antibody conjugated with Horse radish peroxidase (HRP) was used according to the manufacturer instruction (Pierce Pte Ltd). After removing the detection antibody from the membrane, an enhanced chemiluminescent substrate for detection of HRP (Pierce Pte Ltd) was added onto the membrane. […] The density of each band observed on the developed film could be analysed using UVP Bioimaging software (UVP, Inc, Upland, Calif.). […]
Background: A western blot detects proteins with antibodies after separation by electrophoresis.

Test [5] deals with MDA-MB231 human breast cancer cell line. The test is described as follows: Cell-based proliferation assay for determination of GI50 values, MDA-MB231. The note with it: MDA-MB231 cells, 96 h treatment, cyquant assay. The procedure: (§4) Human colon cancer cell lines (Colo205) and human breast cancer cell lines (MDA-MB435 and MDA-MB231) were obtained from ATCC. Colo205 cells were cultivated in RPMI 1640 containing 2 mM L-Glutamine, 5% FBS, 1.0 mM Na Pyruvate. MDA-MB231 cells were cultivated in RPMI 1640 containing 2 mM L-glutamine, 5% FBS. MDA-MB435 cells were cultivated in DMEM containing 2 mM L-Glutamine, 5% FBS. Colo205 cells were seeded in 96-wells plate at 5000 cells per well respectively. MDA-MB435 and MDA-MB231 cells were seeded in 96-wells plate at 6000 cells per well. The plates were incubated at 37° C., 5% CO2, for 24 h. Cells were treated with compounds at various concentrations for 96 h. Cell growth was then monitored using cyquant cell proliferation assay (Invitrogen Pte Ltd). Dose response curves were plotted to determine GI50 values for the compounds using XL-fit (ID Business Solution, Emeryville, Calif.).

The subject of test [6] is MDA-MB435 human breast cancer cell line. In words: Cell-based proliferation assay for determination of GI50 values, MDA-MB435. The note with it: MDA-MB435 cells, 96 h treatment, cyquant assay. The procedure:
as §4

Test [7] concerns acetylated histone H2B in Colo205 cells. In words: Histone acetylation assay (western blot), histone H2B. The class given is cell-based, human. Also noted: key: “Active” means accumulation of acetylated histone was observed when compared with control (without compound). The conditions noted are these: Colo205 cells, 0.1, 1, 5 and 10 μM, 24 h. The procedure: as §3
Test [8] deals with acetylated histone H3 in Colo205 cells. In words: Histone acetylation assay (western blot), histone H3. The class given is cell-based, human. More on the design: key: “Active” means accumulation of acetylated histone was observed when compared with control (without compound). The note with it: Colo205 cells, 0.1, 1, 5 and 10 μM, 24 h. How it is done:
(§5) A hallmark of histone deacetylase (HDAC) inhibition is the increase in the acetylation level of histones. Histone acetylation, including H3, H4, H2A and H2B can be detected by immuno-blotting (western-blot). Colo205 cells, approximately 1.5×10^6 cells/10 cm dish, were seeded in the previously described medium, cultivated for 24 h and subsequently treated with HDAC inhibitory agents at 0.1, 1, 5 and 10 μM final concentration. After 24 h, cells were harvested and lysed according to the instruction from Sigma Mammalian Cell Lysis Kit. The protein concentration was quantified using BCA method (Sigma Pte Ltd). The protein lysate was separated using 4-12% bis-tris SDS-PAGE gel (Invitrogen Pte Ltd) and was transferred onto PVDF membrane (BioRad Pte Ltd). The membrane was probed separately using primary antibody specific for acetylated H3, acetylated H4 or acetylated H2A (Upstate Pte Ltd). The detection antibody, goat anti rabbit antibody conjugated with Horse radish peroxidase (HRP) was used according to the manufacturer instruction (Pierce Pte Ltd). After removing the detection antibody from the membrane, an enhanced chemiluminescent substrate for detection of HRP (Pierce Pte Ltd) was added onto the membrane. After removing the substrate, the membrane was exposed to an X-ray film (Kodak) for 1 sec-20 mins. The X-ray film was developed using the X-ray film processor. The density of each band observed on the developed film could be analysed using UVP Bioimaging software (UVP, Inc, Upland, Calif.). The values were then normalized against the density of actin in the corresponding samples to obtain the expression of the protein.

The test system of test [9] is acetylated histone H4 in Colo205 cells. In words: Histone acetylation assay (western blot), histone H4. Format: cell-based, human. The note with it: Colo205 cells, 0.1, 1, 5 and 10 μM, 24 h. More on the design: key: “Active” means accumulation of acetylated histone was observed when compared with control (without compound). The procedure: as §5
The test system of test [10] is Colo205 human colon cancer cell line. The test is described as follows: Cell-based proliferation assay for determination of GI50 values, Colo205. The note with it: COLO 205, Colo205 cells, 96 h treatment, cyquant assay, read-out: Colo 205 Gl50. How it is done:
as §4

T2 sequence (Q13547 whole entry): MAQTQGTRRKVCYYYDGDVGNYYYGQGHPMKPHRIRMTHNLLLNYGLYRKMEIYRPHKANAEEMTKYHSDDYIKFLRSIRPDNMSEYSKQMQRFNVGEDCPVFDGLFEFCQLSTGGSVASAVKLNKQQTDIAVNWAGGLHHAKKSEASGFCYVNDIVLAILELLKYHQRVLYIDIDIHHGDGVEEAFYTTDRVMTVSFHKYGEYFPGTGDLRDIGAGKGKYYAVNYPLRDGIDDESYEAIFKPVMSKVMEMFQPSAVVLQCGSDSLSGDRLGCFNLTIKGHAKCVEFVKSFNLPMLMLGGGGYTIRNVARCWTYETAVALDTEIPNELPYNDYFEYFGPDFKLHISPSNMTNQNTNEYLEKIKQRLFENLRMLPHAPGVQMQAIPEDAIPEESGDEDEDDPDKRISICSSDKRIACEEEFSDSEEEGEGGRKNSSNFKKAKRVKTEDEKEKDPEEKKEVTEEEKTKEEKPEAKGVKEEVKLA

One may read the IC50 as the concentration that inhibits the measured activity by half. On to `Cc1ccc(S(=O)(=O)NC(=O)Nc2cccc(/C=C/C(=O)NO)c2)cc1` [Example 3, N-Hydroxy-3-{3-[3-(4-methylbenzenesulfonyl)ureido]-phenyl}-acrylamide], for which, in test [1], the “percentage of late apoptotic cells” value worked out at 84%. Also, the IC50 in [2] worked out at 22 nM; in test [3], 1540 nM.

On to `O=C(CCCCCNC(=O)NC(=O)c1ccccc1)NO` [Example 10, 6-(3-Benzoyl-ureido)-hexanoic acid hydroxyamide], for which the IC50 in [2] was 1070 nM; in [3], 56 nM. Also, in test [4], the “Hisotne 2A acetylation” value is given as “Active”. In addition, the “MDA-MB231 Gl50” value in [5] was found to be 1.03 µM. The “MDA-MB435 Gl50” value in [6] worked out at 1.79 µM. For the same compound, the “Histone 2B acetylation” value in test [7] is recorded as “Active”. Besides, the “Histone 3 acetylation” value in test [8] is given as “Active”. For the same compound, in test [9], the “Histone 4 acetylation” value was “Active”. The GI50 in test [10] was found to be 1890 nM.

As for `O=C(/C=C/c1ccc(CN(CCc2c[nH]c3ccccc23)C(=O)NC(=O)c2ccccc2)cc1)NO` [Example 11, 3-(4-{3-Benzoyl-1-[2-(1H-indol-3-yl)-ethyl]-ureidomethyl}phenyl)-N-hydroxy-acrylamide], the results for the IC50 in [2] and in test [3] were 210 nM and 4 nM, respectively. The “Hisotne 2A acetylation” value in [4] is given as “Active”. Further, the “MDA-MB231 Gl50” value in [5] is 0.26 µM. The “MDA-MB435 Gl50” value in test [6] turned out to be 0.62 µM. Besides, the “Histone 2B acetylation” value in test [7] is given as “Active”. Besides, the “Histone 3 acetylation” value in test [8] was “Active”. In addition, in test [9], the “Histone 4 acetylation” value is given as “Active”. For the same compound, the GI50 in [10] worked out at 260 nM.
